Laboratory results reported in PMC5840343, “Interplay between conformational selection and zymogen activation” (Scientific Reports, 2018).
Where “and” joins values, the source holds several entries; their conditions need not be identical. Equal values may be shown once. Entries after “also recorded” stand apart in the source; their conditions may differ. Blank lines part the entries; values can stand above or below the molecule they belong to.

Columns and labels:
[1] = molecular target: prothrombin mutant R320W (Homo sapiens, UniProt P00734, R363W); experiment: Limited proteolysis by chymotrypsin in the absence or presence of argatroban; format: biochemical
Excerpt: (§1) Aliquots of proteolysis mixtures were quenched whit NuPAGE LDS buffer and analyzed by non-reducing SDS-PAGE (4–12% acrylamide). None of the gels were cropped and originals are available in the Supplementary Information. The relative intensity of intact protein gel bands, after Coomassie staining, was estimated by densitometric analysis and fit to single exponential decay over time.

[2] = molecular target: prothrombin mutant R271W (Homo sapiens, UniProt P00734, R314W); experiment: as above; format: biochemical
Excerpt: as §1

[3] = molecular target: thrombin (Homo sapiens, UniProt P00734); experiment: Limited proteolysis by subtilisin in the absence or presence of argatroban; format: biochemical; conditions: argatroban 500 μM; pH 7.4, 37 °C
Excerpt: as §1

[4] = molecular target: prethrombin-2 (Homo sapiens, UniProt P00734); experiment: as above; format: biochemical; conditions: argatroban 500 μM; pH 7.4, 37 °C
Excerpt: as §1

[5] = molecular target: prothrombin (Homo sapiens, UniProt P00734); experiment: as above; format: biochemical; conditions: argatroban 500 μM
Excerpt: as §1

[6] = molecular target: T1, prethrombin-2 (Homo sapiens, UniProt P00734, S568A); experiment: Stopped-flow rapid kinetics of FPR binding to the active site
T1 construct: the protease domain (T272-E579); made in house
Procedure: (§2) Rapid kinetic experiments were conducted on an Applied Photophysics SX20 stopped-flow spectrometer under conditions of excess ligand. The dead time of the mixing cell for this instrument is 0.5–1 ms. Final concentrations of 50–75 nM of thrombin and meizothrombin, or 200–400 nM of prothrombin, prethrombin-1 and prethrombin-2 were used in a buffer containing 400 mM ChCl, 50 mM Tris, 0.1% PEG8000, pH 8.0, at 15 °C. The solution containing the protein was mixed 1:1 with 60 µL solutions of FPR in the same buffer. FPR is the […] analog of the irreversible active site inhibitor H-D-Phe-Pro-Arg-CH2Cl, for which detailed structural information exists on its interaction with the active site of thrombin[47],[61]. Rapid kinetics of FPR binding were studied using an excitation of 295 nm and a cutoff filter at 320 nm. Baselines were measured by mixing the protein into buffer in the absence of ligand. Each kinetic trace for a given ligand concentration was taken as the average of a minimum of six determinations. Traces were fit to single or double exponentials based on the analysis of residuals using software supplied by Applied Photophysics.
(§3) A detailed discussion of ligand binding mechanisms established by rapid kinetics is given elsewhere[25]–[27]. and is briefly summarized below for the sake of completeness. The relevant kinetic scheme for ligand binding to the active site of a trypsin-like protease or zymogen is1 E^∗k12←⟶k21Ekon[L]←⟶koffE:L E* and E depict the partitioning of the ensemble of pre-existing conformations between those with the active site accessible (E) or inaccessible (E*) to ligand binding. The ligand, L, selectively binds to E with a second order rate of association kon. Under conditions where L is in large excess over the macromolecule, the reaction scheme in eq. 1 gives two independent rates of relaxation to equilibrium according to the expression2 2α1,2=k12+k21+kon[L]+koff±(kon[L]+koff−k12−k21)^2+4k21kon[L]
(§4) The fast relaxation, α1, always increases and eventually grows linearly with [L]. Depending on the sign of the expression koff−k12 , the value of the slow relaxation α2 hyperbolically decreases ( koff>k12 ) or increases ( koff<k12 ) with [L], and remains constant when koff=k12 [25]–[27]. The fast relaxation that eventually grows linearly with [L] reflects the binding event. The slow relaxation monitors the conformational transition associated with binding.
(§5) Resolution of all four independent rate constants in the reaction scheme in eq. 1 requires measurements of both relaxations. […] 2 can be resolved unequivocally. When α2 decreases hyperbolically with [L], the lower limit in the plot, α2(0) , measures the value of koff or the sum k12+k21 , whichever is smaller. The upper limit α2(∞) measures the rate for the E* → E transition k12. […] If only α2 is accessible to experimental measurements, estimation of the E*:E ratio requires additional information from the apparent equilibrium dissociation constant3 Kd,app=koff/kon(1+k21/k12)=Kd(1+k21/k12)
(§6) defined in terms of the intrinsic equilibrium dissociation constant, Kd, and the E*:E ratio k21/k12. Direct and independent determination of Kd,app can be obtained by fluorescence titrations under the same experimental conditions used for stopped-flow measurements. The definition of Kd,app in eq. 3 leads to three useful expressions, i.e.,4 kon≥α22(0)/α2(∞)Kd,app when α2 decreases hyperbolically with [L] as in the case of prothrombin (Fig. 3A),5 kon=α2(0)[α2(∞)+k21]/α2(∞)Kd,app=α2(0)/Kd,app+α2(0)/α2(∞)Kd,appk21 when α2 increases hyperbolically with [L] as in the case of prethrombin-2 (Fig. 3A), and6 kon=α2(0)+k21/Kd,app=α2(0)/Kd,app+1/Kd,appk21 when α2 is independent of [L] as in the case of prethrombin-1 (Fig. 3A). The expression in eq. 4 yields a direct estimate of the lower limit of kon from which the value of k21 and the E*:E ratio can be arrived at with the help of eq. 3 (Table 1). […]

[7] = molecular target: T2, prothrombin (Homo sapiens, UniProt P00734, S568A); experiment: as above
T2 construct: Gla-domain (A1-A46), kringle-1 (C65-C143), kringle-2 (C170-C248) and the protease domain (T272-E579); made in house
Procedure: as §2, §3, §4, §5, §6

[8] = molecular target: T3, prethrombin-1 (Homo sapiens, UniProt P00734, S568A); experiment: as above
T3 construct: generates the intermediate prethrombin-1 (Pre1) composed of kringle-2 and the protease domain; made in house
Procedure: as §2, §3, §4, §5, §6

[9] = molecular target: T1, prethrombin-2; experiment: Equilibrium intrinsic fluorescence titration of FPR binding; conditions: pH 8.0, 15 °C, read-out: Kd,app (direct fluorescence titration)
Excerpt: (§7) defined in terms of the intrinsic equilibrium dissociation constant, Kd, and the E*:E ratio k21/k12. Direct and independent determination of Kd,app can be obtained by fluorescence titrations under the same experimental conditions used for stopped-flow measurements. The definition of Kd,app in eq. 3 leads to three useful expressions, i.e.,4 kon≥α22(0)/α2(∞)Kd,app when α2 decreases hyperbolically with [L] as in the case of prothrombin (Fig. 3A),5 kon=α2(0)[α2(∞)+k21]/α2(∞)Kd,app=α2(0)/Kd,app+α2(0)/α2(∞)Kd,appk21 when α2 increases hyperbolically with [L] as in the case of prethrombin-2 (Fig. 3A), and6 kon=α2(0)+k21/Kd,app=α2(0)/Kd,app+1/Kd,appk21 when α2 is independent of [L] as in the case of prethrombin-1 (Fig. 3A). The expression in eq. 4 yields a direct estimate of the lower limit of kon from which the value of k21 and the E*:E ratio can be arrived at with the help of eq. 3 (Table 1). The expressions in eqs 5 and 6, on the other hand, require assumptions to be made on the value of kon to arrive at the value of k21. In both cases, a lower limit for kon is estimated as kon≥α2(0)/Kd,app .

[10] = molecular target: T2, prothrombin; experiment: as above; conditions: 400 mM ChCl, 50 mM Tris, 0.1% PEG8000, pH 8.0, 15 °C, read-out: Kd,app (direct fluorescence titration)
Excerpt: as §7

[11] = molecular target: T3, prethrombin-1; experiment: as above; conditions: pH 8.0, 15 °C, read-out: Kd,app (direct fluorescence titration)
Excerpt: as §7

[12] = molecular target: T4, meizothrombin (Homo sapiens, UniProt P00734, S568A); experiment: as above
T4 construct: Cleavage at R320 retains the modular structure of prothrombin and generates the active intermediate meizothrombin; Cleavage at R320 generates the active intermediate meizothrombin that retains the modular organization of prothrombin; made in house
Excerpt: as §7

[13] = molecular target: T5, thrombin (Homo sapiens, UniProt P00734, S568A); experiment: as above; conditions: for Kd: thrombin
T5 construct: the protease domain composed of the A and B chains; made in house
Excerpt: as §7

[14] = molecular target: T4, meizothrombin; experiment: Stopped-flow rapid kinetics of FPR binding to the active site
Procedure: as §2, §3, §4, §5

[15] = molecular target: T5, thrombin; experiment: as above
Procedure: as §2, §3, §4, §5

[16] = pH 8.0, 15 °C, read-out: Kd,app (direct fluorescence titration)
[17] = active site Ser replaced by Ala, E*→E rate, pH 8.0, 15 °C
[18] = from rate constants, read-out: Kd,app (calculated from eq. 3)

- kexp of chymotrypsin hydrolysis in the presence of argatroban ([1]; R320W 0.1 mg/ml, argatroban 500 μM, chymotrypsin 1:50 (w/w), pH 7.4, 37 °C): 0.035 ± 0.007 min⁻¹
- enhancement of the rate of chymotrypsin hydrolysis ([1]; R320W, presence vs absence of argatroban): 3 fold and > 3 fold
- kexp of chymotrypsin hydrolysis in the presence of argatroban ([2]; R271W 0.1 mg/ml, argatroban 500 μM, chymotrypsin 1:50 (w/w), pH 7.4, 37 °C): 0.027 ± 0.004 min⁻¹
- enhancement of the rate of chymotrypsin hydrolysis ([2]; R271W, presence vs absence of argatroban): 3 fold and > 3 fold
- effect on products of subtilisin proteolysis of prothrombin ([5]; non-reducing SDS-PAGE): prevents accumulation of prethrombin-1
- effect on the rate of proteolytic digestion of prothrombin by subtilisin ([5]; pH 7.4, 37 °C): significantly enhanced
- enhancement of the rate of prothrombin digestion by subtilisin ([5]; subtilisin 1:1000 (w/w), pH 7.4, 37 °C, densitometry): > 10 fold
SMILES: CC1CNc2c(cccc2S(=O)(=O)N[C@@H](CCCNC(=N)N)C(=O)N2CC[C@@H](C)C[C@@H]2C(=O)O)C1 (some centres unmarked) [argatroban]
- effect on subtilisin digestion of thrombin [3]: practically absent; also recorded: no effect
- effect on subtilisin digestion of prethrombin-2 [4]: much less pronounced than that of prothrombin

- k12 ([6]; prethrombin-2, catalytic Ser replaced by Ala, E*→E rate, pH 8.0, 15 °C): 170 ± 10 s⁻¹
- kon ([6]; prethrombin-2, lower estimate from eq. 5, pH 8.0, 15 °C): ≥930000 ± 80000 M⁻¹ s⁻¹
- koff ([6]; prethrombin-2, pH 8.0, 15 °C): 27 ± 2 s⁻¹
- Kd ([6]; prethrombin-2, under the assumption that kon = 1.5 μM^−1 s^−1, read-out: Kd,app (calculated from eq. 3)): ≥ 29000 nM
- k21 ([7]; E→E* rate, same buffer, pH 8.0, 15 °C): ≥38 ± 3 s⁻¹
- k12 ([7]; catalytic Ser replaced by Ala, E*→E rate, 400 mM ChCl, 50 mM Tris, 0.1% PEG8000, pH 8.0, 15 °C): 6.9 ± 0.3 s⁻¹
- Kd ([7]; from rate constants, pH 8.0, 15 °C, read-out: Kd,app (calculated from eq. 3)): ≥ 200000 nM
- koff ([7]; koff ≥ α2(0), pH 8.0, 15 °C): ≥45 ± 5 s⁻¹
- kon ([7]; lower estimate from eq. 4, pH 8.0, 15 °C): ≥1.5e+06 ± 100000 M⁻¹ s⁻¹
- α2(0), limiting value of the slow relaxation ([7]; the smaller between koff or the sum k12 + k21): 45 ± 5 s⁻¹
- k12 ([8]; prethrombin-1, catalytic Ser replaced by Ala, E*→E rate, pH 8.0, 15 °C): 42 ± 2 s⁻¹
- kon ([8]; prethrombin-1, lower estimate from eq. 6, pH 8.0, 15 °C): ≥460000 ± 50000 M⁻¹ s⁻¹
- koff ([8]; prethrombin-1, pH 8.0, 15 °C): 42 ± 2 s⁻¹
- Kd ([8]; prethrombin-1, under the assumption that kon = 1.5 μM^−1 s^−1, read-out: Kd,app (calculated from eq. 3)): ≥ 92000 nM
- Kd [9]: 29000 ± 2000 nM
- Kd [10]: 190000 ± 20000 nM
- Kd [11]: 92000 ± 8000 nM
- Kd [12, 16]: 510 ± 40 nM
- Kd ([12]; read-out: Kd,app from equilibrium measurements): 510 ± 40 nM
- higher affinity of thrombin compared to prothrombin ([13]; ratio of Kd,app, thrombin vs prothrombin): 700 fold
- Kd [13, 16]: 280 ± 20 nM
- Kd ([13]; read-out: Kd,app from equilibrium measurements of intrinsic fluorescence titration): 280 ± 20 nM
- k21 ([14]; E→E* rate, pH 8.0, 15 °C): 3.4 ± 0.7 s⁻¹
- k12 [14, 17]: 8.8 ± 0.5 s⁻¹
- Kd [14, 18]: 440 ± 30 nM
- koff ([14]; pH 8.0, 15 °C): 0.8 ± 0.1 s⁻¹
- kon ([14]; pH 8.0, 15 °C): 2.5e+06 ± 300000 M⁻¹ s⁻¹
- k21 ([15]; E→E* rate, pH 8.0, 15 °C): 3.8 ± 0.8 s⁻¹
- k12 [15, 17]: 16 ± 1 s⁻¹
- Kd [15, 18]: 290 ± 20 nM
- koff ([15]; pH 8.0, 15 °C): 0.6 ± 0.1 s⁻¹
- kon ([15]; pH 8.0, 15 °C): 2.6e+06 ± 300000 M⁻¹ s⁻¹
SMILES: N=C(N)NCCC[C@H](NC(=O)[C@@H]1CCCN1C(=O)[C@H](N)Cc1ccccc1)C(=O)Nc1ccc([N+](=O)[O-])cc1 [FPR, H-D-Phe-Pro-Arg-p-nitroanilide]
